Target: T1, OR10A6 (Homo sapiens, UniProt Q8NH74)
T1 construct: expressed in transfected cells; host or cells: HEK293
T1 sequence (Q8NH74 1-314): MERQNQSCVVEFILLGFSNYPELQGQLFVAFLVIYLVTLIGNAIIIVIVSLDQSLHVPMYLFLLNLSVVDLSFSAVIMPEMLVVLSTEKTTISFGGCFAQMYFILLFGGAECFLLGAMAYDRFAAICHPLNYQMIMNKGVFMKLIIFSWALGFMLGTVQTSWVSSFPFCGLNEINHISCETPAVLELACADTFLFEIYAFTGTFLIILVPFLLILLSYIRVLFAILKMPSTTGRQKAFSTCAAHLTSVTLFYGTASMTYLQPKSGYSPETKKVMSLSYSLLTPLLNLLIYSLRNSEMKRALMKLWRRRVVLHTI
Test: Luciferase reporter gene assay, OR10A6 expressed in HEK293 cells
Type: cell-based
Conditions: response to hexanoic acid; test substance added together with hexanoic acid; HEK293
Description: Cloning of human olfactory receptors was performed based on the sequence information registered in GenBank, through PCR with human genomic DNA female (G1521: Promega) as a template. Each of the genes amplified through PCR was inserted into a pENTR vector (Invitrogen) according to an instruction manual. Then, the gene-inserted vector was digested with NotI and AscI, and the obtained fragments were inserted into NotI and AscI sites located downstream of the Flag-Rho tag sequence in the pME18S vector.
Each of the 350 types of human olfactory receptors was expressed in HEK293 cells. A reaction solution having a composition shown in Table 2 was prepared on a clean bench, and left to stand for 15 minutes. The solution was dispensed to each well of a 96-well plate (BD). Subsequently, […] cells (100 μL, 3×10^5 cells/cm^2) were seeded in each well and cultured for 24 hours in an incubator at 37° C. and under 5% CO2 conditions.
The olfactory receptor expressed in HEK293 cell was conjugated with cell-intrinsic Gas to activate adenylate cyclase, and thereby the level of intracellular cAMP was increased. For the measurement of the response to odor in this study, the luciferase reporter gene assay was used, in which an increase in the amount of intracellular cAMP was monitored by using the emission value originating from firefly luciferase gene (fluc2P-CRE-hygro) as an indicator. Furthermore, a gene product obtained by fusing renilla luciferase gene in the downstream of CMV promoter (hRluc-CMV) was simultaneously introduced, and this was used as an internal standard for correcting an error in the transgenesis efficiency or the number of cells. The medium was removed from the culture prepared in the above-described section 3) by using a Pipetman, and 75 μl of a solution containing an odor substance (1 mM hexanoic acid or 300 μM nonanoic acid) prepared in CD293 medium (Invitrogen) was added thereto. The cells were cultured for 4 hours in a CO2 incubator, and the luciferase gene was sufficiently expressed in the cells. For the measurement of luciferase activity, the measurement was carried out by using a Dual-Glo™ luciferase assay system (Promega) according to the operation manual of the product. A value calculated by dividing the emission value, derived from a firefly luciferase induced by the stimulation with an odor substance, by the emission value in cells that were not-stimulated with an odor substance, was designated as a fold increase, and used as an index of response intensity.
OR2W1, OR10A6, OR51E1, OR51I2, and OR51L1 were respectively expressed in HEK293 cells by the same method as that used in Example 1, and a luciferase assay was carried out. In the luciferase assay, hexanoic acid was used as the odorous substance, and test substances were added together with hexanoic acid. The response of the olfactory receptors to hexanoic acid was measured, and a decrease in the receptor response to the addition of test substances was evaluated.
The inhibition ratios of the receptor response to test substances were calculated as follows. The emission value (Y) obtained from the cells in which the same receptors were introduced but no odor stimulation was conducted, was subtracted from the emission value derived from firefly luciferase (X) induced by odor stimulation with hexanoic acid alone. Similarly, the emission value (Y) obtained from the cells in which no odor stimulation was conducted, was subtracted from the emission value (Z) caused by stimulation with a mixture of hexanoic acid and a test substance. By the following calculation formula, the inhibitory activity of the test substance to receptor response was calculated based on the increment of the emission value (X−Y) caused by stimulation of hexanoic acid alone. Multiple independent experiments were performed in duplicate, and the average of each experiment was obtained. Inhibition ratio (%)={1−(Z−Y)/(X−Y)}×100

2,4,6-trimethyl-3-cyclohexene-1-carboxyaldehyde, 3,5,6-trimethyl-3-cyclohexene-1-carboxyaldehyde [Isocyclocitral]
Inhibition ratio of OR10A6 response: 1 (Inhibition ratio: 50% or higher)
